According to US20240246992A1, “MACROCYCLIC LRRK2 KINASE INHIBITORS” (LES LABORATOIRES SERVIER, priority 2021, published 2024):

Target: human recombinant LRRK2 protein (Homo sapiens, UniProt Q5S007)
Assay: LRRK2 kinase activity assay (ADP-Glo, LRRKtide peptide)
Type: biochemical
Conditions: human recombinant LRRK2 wt, LRRKtide peptide and ATP, 1 h at 37° C.
How it was run: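 Human recombinant LRRK2 reacted with LRRKtide peptide and ATP for 1 h at 37 °C in the presence of compound. ADP formed measured by ADP-Glo luminescence; IC50 fitted from 10 concentrations run in duplicate.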

Sequence of human recombinant LRRK2 protein (Q5S007 whole entry): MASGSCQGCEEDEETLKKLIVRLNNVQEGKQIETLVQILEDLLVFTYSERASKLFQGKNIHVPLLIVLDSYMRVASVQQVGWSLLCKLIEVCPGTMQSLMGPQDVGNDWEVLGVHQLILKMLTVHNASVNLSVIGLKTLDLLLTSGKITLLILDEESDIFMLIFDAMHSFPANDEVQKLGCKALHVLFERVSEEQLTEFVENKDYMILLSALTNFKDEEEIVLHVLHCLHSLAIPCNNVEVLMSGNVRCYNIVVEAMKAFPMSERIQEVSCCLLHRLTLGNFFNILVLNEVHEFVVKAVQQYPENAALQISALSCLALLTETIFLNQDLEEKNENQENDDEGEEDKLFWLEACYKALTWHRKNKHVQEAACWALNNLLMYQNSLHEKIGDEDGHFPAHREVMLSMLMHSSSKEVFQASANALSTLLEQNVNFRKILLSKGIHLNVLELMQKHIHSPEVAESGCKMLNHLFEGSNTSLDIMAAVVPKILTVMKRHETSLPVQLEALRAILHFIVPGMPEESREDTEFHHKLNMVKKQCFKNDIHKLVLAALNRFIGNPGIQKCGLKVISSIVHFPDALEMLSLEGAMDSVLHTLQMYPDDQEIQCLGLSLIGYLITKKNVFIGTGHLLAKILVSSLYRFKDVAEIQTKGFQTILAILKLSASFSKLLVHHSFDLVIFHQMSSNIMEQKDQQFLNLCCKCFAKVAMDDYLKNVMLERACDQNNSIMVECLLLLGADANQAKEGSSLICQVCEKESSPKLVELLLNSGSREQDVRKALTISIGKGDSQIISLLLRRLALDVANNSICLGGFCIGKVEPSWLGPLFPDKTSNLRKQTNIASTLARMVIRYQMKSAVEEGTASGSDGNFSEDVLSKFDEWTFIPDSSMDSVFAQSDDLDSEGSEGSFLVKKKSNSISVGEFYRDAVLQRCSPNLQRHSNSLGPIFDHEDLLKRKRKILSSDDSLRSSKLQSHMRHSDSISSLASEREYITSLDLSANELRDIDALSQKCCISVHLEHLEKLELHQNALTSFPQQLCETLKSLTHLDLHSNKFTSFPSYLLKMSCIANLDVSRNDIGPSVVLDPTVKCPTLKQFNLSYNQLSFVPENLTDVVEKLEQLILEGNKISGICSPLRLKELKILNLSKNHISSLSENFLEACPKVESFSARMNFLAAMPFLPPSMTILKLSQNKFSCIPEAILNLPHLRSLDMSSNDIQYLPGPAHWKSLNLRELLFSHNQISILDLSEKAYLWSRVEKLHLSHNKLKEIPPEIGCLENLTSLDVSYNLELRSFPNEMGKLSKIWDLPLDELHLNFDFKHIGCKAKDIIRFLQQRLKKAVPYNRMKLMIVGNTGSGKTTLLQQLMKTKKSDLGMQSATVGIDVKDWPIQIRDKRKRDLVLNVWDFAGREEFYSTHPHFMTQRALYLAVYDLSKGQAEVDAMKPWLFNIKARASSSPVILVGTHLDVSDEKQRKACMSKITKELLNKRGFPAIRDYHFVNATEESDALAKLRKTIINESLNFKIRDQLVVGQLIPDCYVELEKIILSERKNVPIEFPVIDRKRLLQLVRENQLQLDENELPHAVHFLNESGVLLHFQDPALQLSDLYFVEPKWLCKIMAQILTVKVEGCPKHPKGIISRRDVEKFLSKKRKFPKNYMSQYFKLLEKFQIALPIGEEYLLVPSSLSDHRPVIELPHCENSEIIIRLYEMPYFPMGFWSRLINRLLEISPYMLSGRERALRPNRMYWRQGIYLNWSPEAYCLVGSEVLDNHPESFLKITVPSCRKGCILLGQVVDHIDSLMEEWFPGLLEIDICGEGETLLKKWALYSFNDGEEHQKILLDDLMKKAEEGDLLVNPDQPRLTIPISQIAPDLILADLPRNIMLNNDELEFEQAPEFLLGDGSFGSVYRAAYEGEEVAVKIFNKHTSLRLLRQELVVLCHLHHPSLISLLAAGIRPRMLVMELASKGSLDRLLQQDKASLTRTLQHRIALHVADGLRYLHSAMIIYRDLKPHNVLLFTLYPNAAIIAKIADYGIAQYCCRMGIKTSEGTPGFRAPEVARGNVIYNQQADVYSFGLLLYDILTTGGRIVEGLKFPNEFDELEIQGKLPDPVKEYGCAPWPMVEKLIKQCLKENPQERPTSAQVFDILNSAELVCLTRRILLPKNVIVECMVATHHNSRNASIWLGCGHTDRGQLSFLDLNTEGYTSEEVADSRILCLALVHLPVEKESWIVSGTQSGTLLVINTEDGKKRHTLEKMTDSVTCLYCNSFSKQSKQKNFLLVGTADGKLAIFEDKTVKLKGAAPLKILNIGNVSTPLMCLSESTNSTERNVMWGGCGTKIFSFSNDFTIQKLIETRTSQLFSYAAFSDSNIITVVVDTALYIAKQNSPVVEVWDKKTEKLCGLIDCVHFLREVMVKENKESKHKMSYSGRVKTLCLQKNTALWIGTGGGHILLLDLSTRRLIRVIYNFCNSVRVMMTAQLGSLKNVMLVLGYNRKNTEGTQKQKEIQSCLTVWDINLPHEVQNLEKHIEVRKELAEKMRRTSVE

SMILES | IC50
C[C@@H]1COc2ccc3[nH]nc(c3c2)-c2cccc(c2)OCCN[C@H]1C [Example 169, (11S,12S)-11,12-dimethyl-7,14-dioxa-10,19,20-triazatetracyclo[13.5.2.1^2,6.0^18,21]tricosa-1(20),2(23),3,5,15(22),16,18(21)-heptaene] | < 100 nM
COC1CNC(=O)COc2cccc(c2)-c2n[nH]c3ccc(cc23)OC1 (stereo not drawn) [Example 170, 12-methoxy-7,14-dioxa-10,19,20-triazatetracyclo[13.5.2.1^2,6.0^18,21]tricosa-1(20),2(23),3,5,15,17,21-heptaen-9-one] | < 100 nM
COC1CNCCOc2cccc(c2)-c2n[nH]c3ccc(cc23)OC1 (stereo not drawn) [Example 171, 12-methoxy-7,14-dioxa-10,19,20-triazatetracyclo[13.5.2.1^2,6.0^18,21]tricosa-1(20),2(23),3,5,15,17,21-heptaene] | < 100 nM
C[C@@H]1CCNC(=O)COc2cc(cc(N3CCOCC3)c2)-c2n[nH]c3ccc(cc23)O1 [Example 172, (13R)-13-methyl-4-(morpholin-4-yl)-7,14-dioxa-10,19,20-triazatetracyclo[13.5.2.1^2,6.0^18,21]tricosa-1(20),2(23),3,5,15,17,21-heptaen-9-one] | < 10 nM
C[C@@H]1CCNCCOc2cc(cc(N3CCOCC3)c2)-c2n[nH]c3ccc(cc23)O1 [Example 173, (13R)-13-methyl-4-(morpholin-4-yl)-7,14-dioxa-10,19,20-triazatetracyclo[13.5.2.1^2,6.0^18,21]tricosa-1(20),2(23),3,5,15,17,21-heptaene] | < 10 nM
C[C@H]1CCNC(=O)COc2cc(cc(N3CCOCC3)c2)-c2n[nH]c3ccc(cc23)O1 [Example 174, (13S)-13-methyl-4-(morpholin-4-yl)-7,14-dioxa-10,19,20-triazatetracyclo[13.5.2.1^2,6.0^18,21]tricosa-1(20),2(23),3,5,15,17,21-heptaen-9-one] | < 10 nM
C[C@H]1CCNCCOc2cc(cc(N3CCOCC3)c2)-c2n[nH]c3ccc(cc23)O1 [Example 175, (13S)-13-methyl-4-(morpholin-4-yl)-7,14-dioxa-10,19,20-triazatetracyclo[13.5.2.1^2,6.0^18,21]tricosa-1(20),2(23),3,5,15,17,21-heptaene] | < 10 nM
CC1Oc2cc(cc(N3CCOCC3)c2)-c2n[nH]c3ccc(cc23)OCCCNC1=O (stereo not drawn) [Example 176, 8-methyl-4-(morpholin-4-yl)-7,14-dioxa-10,19,20-triazatetracyclo[13.5.2.1^2,6.0^18,21]tricosa-1(20),2,4,6(23),15,17,21-heptaen-9-one] | < 10 nM
C[C@@H]1CCNC(=O)CCn2cc(cn2)-c2n[nH]c3ccc(cc23)O1 [Example 179, (12R)-12-methyl-13-oxa-4,5,9,18,19-pentaazatetracyclo [12.5.2.1^2,5.0^17,20] docosa-1(19),2(22),3,14(21),15,17(20)-hexaen-8-one] | < 10 nM
C[C@@H]1CCNCCCn2cc(cn2)-c2n[nH]c3ccc(cc23)O1 [Example 180, (12R)-12-methyl-13-oxa-4,5,9,18,19-pentaazatetracyclo [12.5.2.1^2,5.0^17,20]docosa-1(19),2(22),3,14(21),15,17(20)-hexaene] | < 100 nM
O=C1CCn2ncc(n2)-c2n[nH]c3ccc(cc23)OCCCN1 [Example 181, 13-oxa-4,5,9,18,19,22-hexaazatetracyclo[12.5.2.1^2,5.0^17,20] docosa-1(19),2(22),3,14(21),15,17(20)-hexaen-8-one] | < 10 nM
c1cc2[nH]nc3c2cc1OCCCNCCCn1ncc-3n1 [Example 182, 13-oxa-4,5,9,18,19,22-hexaazatetracyclo[12.5.2.1^2,5.0^17,20] docosa-1(19),2(22),3,14(21),15,17(20)-hexaene] | < 10 nM
C[C@@H]1NC(=O)COc2cccc(c2)-c2n[nH]c3ccc(cc23)OC[C@H]1F [Example 183, (11S,12S)-12-fluoro-11-methyl-7,14-dioxa-10,19,20-triazatetracyclo[13.5.2.1^2,6.0^18,21]tricosa-1(20),2,4,6(23),15,17,21-heptaen-9-one] | < 100 nM
C[C@@H]1NCCOc2cccc(c2)-c2n[nH]c3ccc(cc23)OC[C@H]1F [Example 184, (11S,12S)-12-fluoro-11-methyl-7,14-dioxa-10,19,20-triazatetracyclo[13.5.2.1^2,6.0^18,21]tricosa-1(20),2,4,6(23),15,17,21-heptaene] | < 100 nM
O=C1COc2cc(cc(C(F)(F)F)c2)-c2n[nH]c3ccc(cc23)OCCCN1 [Example 185, 4-(trifluoromethyl)-7,14-dioxa-10,19,20-triazatetracyclo [13.5.2.1^2,6.0^18,21]tricosa-1(20),2,4,6(23),15,17,21-heptaen-9-one] | < 10 nM
FC(F)(F)c1cc2cc(c1)-c1n[nH]c3ccc(cc13)OCCCNCCO2 [Example 186, 4-(trifluoromethyl)-7,14-dioxa-10,19,20-triazatetracyclo [13.5.2.1^2,6.0^18,21]tricosa-1(20),2,4,6(23),15,17,21-heptaene] | < 10 nM
Cc1cc2[nH]nc3c2cc1OCCCNC(=O)COc1cncc-3c1 [Example 187, 16-methyl-7,14-dioxa-4,10,19,20-tetraazatetracyclo[13.5.2.1^2,6.0^18,21]tricosa-1(20),2(23),3,5,15(22),16,18(21)-heptaen-9-one] | < 100 nM

SMILES | IC50
Cc1cc2[nH]nc3c2cc1OCCCNCCOc1cncc-3c1 [Example 188, 16-methyl-7,14-dioxa-4,10,19,20-tetraazatetracyclo[13.5.2.1^2,6.0^18,21]tricosa-1(20),2(23),3,5,15(22),16,18(21)-heptaene] | < 10 nM
CN1CCCNc2ccc3[nH]nc(c3c2)-c2cncc(c2)OCC1=O [Example 190, 10-methyl-7-oxa-4,10,14,19,20-pentaazatetracyclo[13.5.2.1^2,6.0^18,21]tricosa-1(20),2,4,6(23),15,17,21-heptaen-9-one] | < 100 nM
CN1CCCOc2ccc3[nH]nc(c3c2)-c2cc(C#N)cc(c2)OCC1=O [Example 191, 10-methyl-9-oxo-7,14-dioxa-10,19,20-triazatetracyclo [13.5.2.1^2,6.0^18,21]tricosa-1(20),2,4,6(23),15,17,21-heptaene-4-carbonitrile] | < 100 nM
O=C1COc2cccc(c2)-c2n[nH]c3ccc(cc23)OCCN1 [Example 192, 7,13-dioxa-10,18,19-triazatetracyclo[12.5.2.1^2,6.0^17,20]docosa-1(19),2(22),3,5,14(21),15,17(20)-heptaen-9-one] | < 1000 nM
O=C1COc2cncc(n2)-c2n[nH]c3ccc(cc23)OCCCN1 [Example 193, 7,14-dioxa-4,10,19,20,23-pentaazatetracyclo[13.5.2.1^2,6.0^18,21]tricosa-1(20),2(23),3,5,15(22),16,18(21)-heptaen-9-one] | < 10 nM
CN1CCCOc2ccc3[nH]nc(c3c2)-c2cc(ccn2)OCC1=O [Example 194, 10-methyl-7,14-dioxa-3,10,19,20-tetraazatetracyclo[13.5.2.1^2,6.0^18,21]tricosa-1(20),2(23),3,5,15(22),16,18(21)-heptaen-9-one] | < 1000 nM
O=C1COc2cc(F)cc(c2)-c2n[nH]c3ccc(cc23)OCCCN1 [Example 195, 4-fluoro-7,14-dioxa-10,19,20-triazatetracyclo[13.5.2.1^2,6.0^18,21]tricosa-1(20),2(23),3,5,15(22),16,18(21)-heptaen-9-one] | < 10 nM
O=C1COc2nccc(n2)-c2n[nH]c3ccc(cc23)OCCCN1 [Example 196, 7,14-dioxa-5,10,19,20,23-pentaazatetracyclo[13.5.2.1^2,6.0^18,21]tricosa-1(20),2(23),3,5,15(22),16,18(21)-heptaen-9-one] | < 10 nM
CN1CCCOc2ccc3[nH]nc(c3c2)-c2cncc(c2)OC(C)(C)C1=O [Example 197, 8,8,10-trimethyl-7,14-dioxa-4,10,19,20-tetraazatetracyclo[13.5.2.1^2,6.0^18,21]tricosa-1(20),2(23),3,5,15(22),16,18(21)-heptaen-9-one] | < 100 nM
CN1CCCOc2ccc3[nH]nc(c3c2)-c2cncc(c2)OCCC1=O [Example 198, 11-methyl-7,15-dioxa-4,11,20,21-tetraazatetracyclo [14.5.2.1^2,6.0^19,22] tetracosa-1(21),2,4,6(24),16,18,22-heptaen-10-one] | < 1000 nM
O=C1COc2cncc(c2)-c2n[nH]c3ccc(cc23)OCCN1 [Example 199, 7,13-dioxa-4,10,18,19-tetraazatetracyclo[12.5.2.1^2,6.0^17,20] docosa-1(19),2(22),3,5,14(21),15,17(20)-heptaen-9-one] | < 100 nM
CN1CCCOc2ccc3[nH]nc(c3c2)-c2cc(cnc2F)OCC1=O [Example 200, 3-fluoro-10-methyl-7,14-dioxa-4,10,19,20-tetraazatetracyclo[13.5.2.1^2,6.0^18,21]tricosa-1(20),2,4,6(23),15(22),16,18(21)-heptaen-9-one] | < 1000 nM
CC1(C)Oc2cncc(c2)-c2n[nH]c3ccc(cc23)OCCCNC1=O [Example 201, 8,8-dimethyl-7,14-dioxa-4,10,19,20-tetraazatetracyclo [13.5.2.1^2,6.0^18,21]tricosa-1(20),2(23),3,5,15,17,21-heptaen-9-one] | < 10 nM
O=C1COc2cncc(c2)-c2n[nH]c3ccc(cc23)OCC(F)(F)CN1 [Example 202, 12,12-difluoro-7,14-dioxa-4,10,19,20-tetraazatetracyclo [13.5.2.1^2,6.0^18,21]tricosa-1(20),2,4,6(23),15,17,21-heptaen-9-one] | < 10 nM
O=C1COc2cc(Br)cc(c2)-c2n[nH]c3ccc(cc23)OCCCN1 [Example 203, 4-bromo-7,14-dioxa-10,19,20-triazatetracyclo[13.5.2.1^2,6.0^18,21]tricosa-1(20),2(23),3,5,15,17,21-heptaen-9-one] | < 10 nM
O=C1COc2cc(cc(N3CCCCC3)c2)-c2n[nH]c3ccc(cc23)OCCCN1 [Example 204, 4-(piperidin-1-yl)-7,14-dioxa-10,19,20-triazatetracyclo [13.5.2.1^2,6.0^18,21]tricosa-1(20),2(23),3,5,15,17,21-heptaen-9-one] | < 10 nM
